In PubChem BioAssay (NCI) one finds TGI and GI50 data, which are given here for 5 compounds.

Test systems include 786-0 renal; NCI-H460 lung; SR leukemia; K-562 leukemia; M14 melanoma; MDA-MB-435; A549 NSCLC; HOP-92 NSCLC; UACC-257 melanoma; OVCAR-4 ovarian.
What all share (assay): DTP human tumour cell line panel, 48 h

Each structure is given as a SMILES string.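 Five concentrations, 48 hours, 96-well plates. Here, GI50 denotes the concentration required for 50% inhibition of growth. The concentration for full growth arrest is given as TGI.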

`O=c1c(Cl)c(Cl)c(=O)c2sc3cc(Cl)ccc3[nH]c1=2`: the TGI with 786-0 renal is over 100 µM; in the test on NCI-H460 lung it was over 100 µM; with SR leukemia it was 21.5 µM; with K-562 leukemia, 34.6 µM; in the test on M14 melanoma, over 100 µM; with MDA-MB-435 it was over 100 µM. Moreover, the TGI was over 100 µM with A549 NSCLC, 33.4 µM with HOP-92 NSCLC, 35.3 µM in the test on UACC-257 melanoma and 22 µM in the test on OVCAR-4 ovarian.
`CC(C)(C)CC(C)(C)NCc1cc(C(C)(C)C)cc(CNC(C)(C)CC(C)(C)C)c1O`: the GI50 is 3.85 µM in the test on 786-0 renal; 3.49 µM with NCI-H460 lung; 2.14 µM with SR leukemia; 2.2 µM in the test with K-562 leukemia; 1.95 µM with M14 melanoma; 2.56 µM in the test on MDA-MB-435. In addition, the GI50 is 3.97 µM in the test with A549 NSCLC, 0.548 µM in the test with HOP-92 NSCLC, 2.21 µM with UACC-257 melanoma and 2.62 µM with OVCAR-4 ovarian. Moreover, the TGI in the test on 786-0 renal worked out at 14.4 µM; with NCI-H460 lung, 12.9 µM; in the test on SR leukemia, 5.44 µM; in the test with K-562 leukemia, 9.45 µM; in the test on M14 melanoma, 4.16 µM; in the test on MDA-MB-435, 10.9 µM. Also, the TGI worked out at 14.7 µM in the test with A549 NSCLC, 4.2 µM in the test on HOP-92 NSCLC, 6.52 µM in the test on UACC-257 melanoma and 10.9 µM in the test with OVCAR-4 ovarian.
For the compound `C=C1CCC2C(C)(COC(=O)CC)C(OC(=O)CC)CCC2(C)C1C/C=C1/C(=O)OCC1OC(=O)CC` (centres undefined), the GI50 in the test on 786-0 renal was 1.9 µM; with NCI-H460 lung it was 1.98 µM; with SR leukemia, 1.58 µM; in the test with K-562 leukemia, 1.79 µM; in the test with M14 melanoma, 1.94 µM; with MDA-MB-435, 1.68 µM. For the same compound, the GI50 was 2.03 µM with A549 NSCLC, 3.03 µM in the test on HOP-92 NSCLC, 1.33 µM in the test on UACC-257 melanoma and 2.33 µM in the test with OVCAR-4 ovarian. For the same compound, the TGI was found to be 3.48 µM in the test with 786-0 renal; 3.59 µM in the test on NCI-H460 lung; 5.28 µM with SR leukemia; 10.4 µM in the test on K-562 leukemia; 4.66 µM with M14 melanoma; 3.7 µM with MDA-MB-435. The TGI was found to be 4.22 µM with A549 NSCLC, 7.15 µM in the test on HOP-92 NSCLC, 2.7 µM with UACC-257 melanoma and 6.9 µM in the test with OVCAR-4 ovarian.
In the case of `Cc1cc(N2CCSCC2)nc(NC2CCCC(Nc3ccnc4cc(Cl)ccc34)C2)n1` (centres undefined), the GI50 is 1.52 µM in the test on 786-0 renal; 1.97 µM with NCI-H460 lung; 0.452 µM in the test with SR leukemia; 1.14 µM in the test on K-562 leukemia; 1.85 µM in the test on M14 melanoma; 1.68 µM in the test with MDA-MB-435. Further, the GI50 in the test on A549 NSCLC is 2.88 µM; in the test on HOP-92 NSCLC, 1.65 µM; in the test with UACC-257 melanoma, 2.14 µM; with OVCAR-4 ovarian it was 1.61 µM. Moreover, the concentration for total growth inhibition (TGI) with 786-0 renal was found to be 2.92 µM; in the test on NCI-H460 lung, 4.13 µM; in the test on SR leukemia, 2.35 µM; with K-562 leukemia, 3.41 µM; in the test with M14 melanoma, 3.72 µM; in the test on MDA-MB-435, 3.09 µM. The TGI in the test with A549 NSCLC was 8.91 µM; in the test with HOP-92 NSCLC it was 3.45 µM; with UACC-257 melanoma, 4.13 µM; with OVCAR-4 ovarian, 5.13 µM.
As to `COc1cc(Nc2nc3ccccc3cc2C(=O)Nc2ccc(F)c(F)c2)cc(OC)c1OC`, the GI50 in the test on 786-0 renal was 3.38 µM; in the test on NCI-H460 lung, 3.11 µM; in the test on SR leukemia it was 2.71 µM; in the test on K-562 leukemia, 3.31 µM; in the test on M14 melanoma, 2.74 µM; in the test on MDA-MB-435, 2.19 µM. The GI50 is 3.08 µM with A549 NSCLC, 1.98 µM with HOP-92 NSCLC, 2.6 µM in the test on UACC-257 melanoma and 2.8 µM with OVCAR-4 ovarian. Also, the TGI in the test with 786-0 renal is over 100 µM; in the test with NCI-H460 lung, over 100 µM; in the test with SR leukemia, 9.4 µM; with K-562 leukemia it was over 100 µM; in the test with MDA-MB-435, 5.17 µM; with A549 NSCLC, over 100 µM. Besides, the results for the TGI with HOP-92 NSCLC, with UACC-257 melanoma and in the test with OVCAR-4 ovarian were 5.75 µM, 6.28 µM and 8.56 µM, respectively.
